Reference: ChEMBL document CHEMBL6109114, “Design, synthesis, and biological evaluation of 4-(2-fluorophenoxy)pyridine derivatives as novel FLT3-ITD inhibitors” (Eur J Med Chem, 2025)
Active and inactive are the calls of the source. The rule behind the calls is not given here.

Experiments:
[1] = molecular target: CYP3A4 (Homo sapiens, UniProt P08684); experiment: Inhibition of CYP3A4 in human liver microsomes using midazolam as substrate at 10 uM incubated for 10 mins in presence of NADPH by LC-MS/MS analysis relative to control; type: ADME, Microsome; conditions: probe midazolam
CYP3A4, sequence (P08684 whole entry): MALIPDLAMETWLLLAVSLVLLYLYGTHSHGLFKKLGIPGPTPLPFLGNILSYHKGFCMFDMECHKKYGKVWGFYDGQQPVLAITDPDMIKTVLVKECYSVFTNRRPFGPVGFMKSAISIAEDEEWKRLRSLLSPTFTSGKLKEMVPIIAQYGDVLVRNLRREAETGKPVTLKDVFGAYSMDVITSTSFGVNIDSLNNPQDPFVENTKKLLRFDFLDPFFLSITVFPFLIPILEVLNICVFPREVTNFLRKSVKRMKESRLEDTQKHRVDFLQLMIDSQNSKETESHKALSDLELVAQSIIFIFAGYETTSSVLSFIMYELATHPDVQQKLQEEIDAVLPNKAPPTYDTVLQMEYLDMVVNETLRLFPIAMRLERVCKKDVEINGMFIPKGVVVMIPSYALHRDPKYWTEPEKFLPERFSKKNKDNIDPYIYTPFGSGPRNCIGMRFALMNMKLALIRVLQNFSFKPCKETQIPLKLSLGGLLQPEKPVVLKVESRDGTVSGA

[2] = system: MOLM-13; experiment: Induction of cell cycle arrest in human MOLM-13 cells assessed as accumulation of cells at G2 phase at 0.3 uM incubated for 48 hrs (reference value: […]); type: functional
[3] = molecular target: CDK6/cyclin D3 (Homo sapiens) (UniProt P30281+Q00534); experiment: Inhibition of human CDK6/cyclinD3 at 1 uM by Eurofins-DiscoverX assay; type: protein-complex assay
[4] = system: MOLM-13; experiment: Induction of apoptosis in human MOLM-13 cells assessed as necrotic cells at 0.3 uM incubated for 48 hrs by Annexin V-FITC/PI staining based flow cytometry analysis (reference value: 0.077%); type: functional
[5] = system: BaF3; experiment: Antiproliferative activity against mouse BaF3 cells harbouring FLT3-ITD-D835V mutant assessed as inhibition of cell growth measured after 3 days by celltiter-glo luminescent cell viability assay; type: functional, cell-based; conditions: BaF3, 72 h
[6] = Metabolic stability in human liver microsomes assessed as parent compound remaining at 1 uM measured after 60 mins in presence of NADPH regenerating system by LC-MS/MS analysis; type: ADME, Microsome; conditions: read-out: Stability
[7] = molecular target: CDK4/Cyclin D3 (Homo sapiens) (UniProt P11802+P30281); experiment: Inhibition of human CDK4/cyclinD3 assessed as remaining activity at 1 uM by Eurofins-DiscoverX assay relative to control; type: protein-complex assay
[8] = molecular target: CYP2C9 (Homo sapiens, UniProt P11712); experiment: Inhibition of CYP2C9 in human liver microsomes using diclofenac as substrate at 10 uM incubated for 10 mins in presence of NADPH by LC-MS/MS analysis relative to control; type: ADME, Microsome; conditions: probe diclofenac
CYP2C9, sequence (P11712 whole entry): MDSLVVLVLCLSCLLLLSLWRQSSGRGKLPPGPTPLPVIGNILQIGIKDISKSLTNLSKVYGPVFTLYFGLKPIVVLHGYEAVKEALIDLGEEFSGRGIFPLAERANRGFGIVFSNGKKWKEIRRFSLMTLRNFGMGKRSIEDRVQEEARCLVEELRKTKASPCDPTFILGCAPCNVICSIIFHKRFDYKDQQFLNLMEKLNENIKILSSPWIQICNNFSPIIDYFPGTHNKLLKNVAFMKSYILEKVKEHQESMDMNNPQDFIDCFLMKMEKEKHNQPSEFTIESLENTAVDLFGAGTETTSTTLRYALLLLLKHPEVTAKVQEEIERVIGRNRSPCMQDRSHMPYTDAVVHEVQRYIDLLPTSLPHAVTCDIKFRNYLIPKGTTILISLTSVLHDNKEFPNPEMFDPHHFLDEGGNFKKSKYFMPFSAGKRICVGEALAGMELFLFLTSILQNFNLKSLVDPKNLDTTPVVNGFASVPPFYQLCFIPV

[9] = molecular target: Mast/stem cell growth factor receptor Kit (Homo sapiens) (UniProt P10721); experiment: Inhibition of human c-Kit assessed as remaining activity at 1 uM by Eurofins-DiscoverX assay relative to control
Mast/stem cell growth factor receptor Kit (Homo sapiens), sequence (P10721 whole entry): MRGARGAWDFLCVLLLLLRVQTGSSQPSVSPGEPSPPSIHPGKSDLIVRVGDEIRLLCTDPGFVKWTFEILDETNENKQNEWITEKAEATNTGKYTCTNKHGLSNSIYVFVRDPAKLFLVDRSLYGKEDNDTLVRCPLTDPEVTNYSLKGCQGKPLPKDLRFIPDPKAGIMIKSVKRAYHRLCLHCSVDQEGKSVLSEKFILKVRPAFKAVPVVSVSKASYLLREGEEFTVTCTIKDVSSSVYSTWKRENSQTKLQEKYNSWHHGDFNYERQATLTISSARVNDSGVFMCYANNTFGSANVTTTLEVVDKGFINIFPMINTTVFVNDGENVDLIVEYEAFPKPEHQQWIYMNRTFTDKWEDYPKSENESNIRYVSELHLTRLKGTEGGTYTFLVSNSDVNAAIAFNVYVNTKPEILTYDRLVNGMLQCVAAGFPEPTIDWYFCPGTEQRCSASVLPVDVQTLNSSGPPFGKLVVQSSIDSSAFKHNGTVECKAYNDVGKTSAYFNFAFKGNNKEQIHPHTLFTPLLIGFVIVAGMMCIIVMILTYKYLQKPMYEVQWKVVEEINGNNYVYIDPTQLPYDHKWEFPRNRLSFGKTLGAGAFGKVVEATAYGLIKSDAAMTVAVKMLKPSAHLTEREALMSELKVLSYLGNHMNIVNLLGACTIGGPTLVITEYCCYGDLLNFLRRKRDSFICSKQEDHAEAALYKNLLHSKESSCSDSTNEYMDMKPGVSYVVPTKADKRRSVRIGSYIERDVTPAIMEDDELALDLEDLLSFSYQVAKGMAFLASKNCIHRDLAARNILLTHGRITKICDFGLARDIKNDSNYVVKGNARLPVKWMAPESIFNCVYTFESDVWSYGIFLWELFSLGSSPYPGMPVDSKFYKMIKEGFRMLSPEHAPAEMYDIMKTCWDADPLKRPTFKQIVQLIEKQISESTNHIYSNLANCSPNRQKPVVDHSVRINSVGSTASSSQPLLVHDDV

[10] = system: NCI-H441; experiment: Antiproliferative activity against non-FLT3 expressing human NCI-H441 cells assessed as inhibition of cell growth measured after 3 days by celltiter-glo luminescent cell viability assay; type: functional, cell-based; conditions: NCI-H441, 72 h
[11] = molecular target: Cyclin-dependent kinase 5/CDK5 activator 1 (Homo sapiens) (UniProt Q00535+Q15078); experiment: Inhibition of human CDK5/p25 assessed as remaining activity at 1 uM by Eurofins-DiscoverX assay relative to control; type: protein-complex assay
Cyclin-dependent kinase 5/CDK5 activator 1 (Homo sapiens), sequence (Q00535 whole entry): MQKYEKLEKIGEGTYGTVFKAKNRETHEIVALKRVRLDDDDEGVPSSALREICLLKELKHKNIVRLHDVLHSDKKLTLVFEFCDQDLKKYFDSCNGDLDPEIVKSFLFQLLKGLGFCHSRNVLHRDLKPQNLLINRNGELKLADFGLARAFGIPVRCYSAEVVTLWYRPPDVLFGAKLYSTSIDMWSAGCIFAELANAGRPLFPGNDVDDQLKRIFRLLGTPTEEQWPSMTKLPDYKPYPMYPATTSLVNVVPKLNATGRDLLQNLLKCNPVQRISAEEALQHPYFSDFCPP
Cyclin-dependent kinase 5/CDK5 activator 1 (Homo sapiens), sequence (Q15078 99-307 partner limits assumed): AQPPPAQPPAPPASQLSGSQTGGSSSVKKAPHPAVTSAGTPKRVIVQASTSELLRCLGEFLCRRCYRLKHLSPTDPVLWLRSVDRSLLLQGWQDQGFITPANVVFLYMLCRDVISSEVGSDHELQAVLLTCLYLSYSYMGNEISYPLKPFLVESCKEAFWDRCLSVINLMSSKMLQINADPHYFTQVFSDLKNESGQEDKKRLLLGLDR

[12] = system: MOLM-13; experiment: Induction of apoptosis in human MOLM-13 cells assessed as early apoptotic cells at 0.3 uM incubated for 48 hrs by Annexin V-FITC/PI staining based flow cytometry analysis (reference value: 4.93%); type: functional
[13] = system: A549; experiment: Antiproliferative activity against non-FLT3 expressing human A549 cells assessed as inhibition of cell growth measured after 3 days by celltiter-glo luminescent cell viability assay; type: functional, cell-based; conditions: A549, 72 h
[14] = molecular target: CDK3/Cyclin E (Homo sapiens) (UniProt P24864+Q00526); experiment: Inhibition of human CDK3/CyclinE assessed as remaining activity at 1 uM by Eurofins-DiscoverX assay relative to control; type: protein-complex assay
CDK3/Cyclin E (Homo sapiens), sequence (P24864 whole entry, looked up): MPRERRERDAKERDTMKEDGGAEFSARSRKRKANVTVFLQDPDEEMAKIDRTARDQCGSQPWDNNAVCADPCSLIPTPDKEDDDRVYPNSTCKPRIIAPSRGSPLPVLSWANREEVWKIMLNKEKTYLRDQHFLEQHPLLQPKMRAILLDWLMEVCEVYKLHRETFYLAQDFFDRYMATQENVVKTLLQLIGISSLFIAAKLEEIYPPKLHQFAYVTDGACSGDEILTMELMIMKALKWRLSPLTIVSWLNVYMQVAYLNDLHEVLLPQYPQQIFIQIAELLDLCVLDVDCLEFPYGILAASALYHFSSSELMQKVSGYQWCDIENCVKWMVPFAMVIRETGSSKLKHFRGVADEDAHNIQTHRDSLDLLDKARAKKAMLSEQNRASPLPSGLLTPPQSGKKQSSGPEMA
CDK3/Cyclin E (Homo sapiens), sequence (Q00526 whole entry, looked up): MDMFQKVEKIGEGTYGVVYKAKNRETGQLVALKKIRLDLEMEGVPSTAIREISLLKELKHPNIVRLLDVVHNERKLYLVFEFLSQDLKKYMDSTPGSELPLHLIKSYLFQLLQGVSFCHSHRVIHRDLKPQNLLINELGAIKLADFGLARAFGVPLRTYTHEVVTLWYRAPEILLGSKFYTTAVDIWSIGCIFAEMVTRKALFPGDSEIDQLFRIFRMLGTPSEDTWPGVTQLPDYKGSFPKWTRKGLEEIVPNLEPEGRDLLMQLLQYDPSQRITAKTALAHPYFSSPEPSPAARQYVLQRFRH

[15] = system: BaF3; experiment: Antiproliferative activity against mouse BaF3 cells harbouring TEL-KIT assessed as inhibition of cell growth measured after 3 days by celltiter-glo luminescent cell viability assay; type: functional, cell-based; conditions: BaF3, 72 h
[16] = Permeability of the compound incubated for 4 hrs by PAMPA method; type: ADME; conditions: read-out: permeability
[17] = system: BaF3; experiment: Antiproliferative activity against mouse BaF3 cells harbouring FLT3-ITD-F691L mutant assessed as inhibition of cell growth measured after 3 days by celltiter-glo luminescent cell viability assay; type: functional, cell-based; conditions: BaF3, 72 h
[18] = system: MV4-11; experiment: Antiproliferative activity against human MV4-11 cells harbouring FLT3-ITD assessed as inhibition of cell growth measured after 3 days by celltiter-glo luminescent cell viability assay; type: functional, cell-based; conditions: MV4-11, 72 h
[19] = Half life in mouse at 5 mg/kg, iv; type: ADME, organism-based; conditions: in vivo
[20] = Tmax in mouse at 5 mg/kg, iv; type: ADME, organism-based; conditions: in vivo
[21] = system: Jurkat; experiment: Antiproliferative activity against non-FLT3 expressing human Jurkat cells assessed as inhibition of cell growth measured after 3 days by celltiter-glo luminescent cell viability assay; type: functional, cell-based; conditions: 72 h
[22] = molecular target: Cyclin-dependent kinase 2/cyclin A (Homo sapiens) (UniProt P24941+P20248+P78396); experiment: Inhibition of human CDK2/CyclinA assessed as remaining activity at 1 uM by Eurofins-DiscoverX assay relative to control; type: protein-complex assay
[23] = Antiproliferative activity against human PBMC cells assessed as inhibition of cell growth measured after 3 days by celltiter-glo luminescent cell viability assay; type: toxicity, cell-based
[24] = MRT (0 to t) in mouse at 5 mg/kg, iv; type: ADME, organism-based; conditions: in vivo
[25] = molecular target: Vascular endothelial growth factor receptor 2 (Homo sapiens, UniProt P35968); experiment: Inhibition of VEGFR2 (unknown origin) using Fluorescein-Poly GT as substrate preincubated for 10 mins followed by substrate addition and measured after 30 mins in presence of ATP by mobility shift assay
Vascular endothelial growth factor receptor 2, sequence (P35968 whole entry): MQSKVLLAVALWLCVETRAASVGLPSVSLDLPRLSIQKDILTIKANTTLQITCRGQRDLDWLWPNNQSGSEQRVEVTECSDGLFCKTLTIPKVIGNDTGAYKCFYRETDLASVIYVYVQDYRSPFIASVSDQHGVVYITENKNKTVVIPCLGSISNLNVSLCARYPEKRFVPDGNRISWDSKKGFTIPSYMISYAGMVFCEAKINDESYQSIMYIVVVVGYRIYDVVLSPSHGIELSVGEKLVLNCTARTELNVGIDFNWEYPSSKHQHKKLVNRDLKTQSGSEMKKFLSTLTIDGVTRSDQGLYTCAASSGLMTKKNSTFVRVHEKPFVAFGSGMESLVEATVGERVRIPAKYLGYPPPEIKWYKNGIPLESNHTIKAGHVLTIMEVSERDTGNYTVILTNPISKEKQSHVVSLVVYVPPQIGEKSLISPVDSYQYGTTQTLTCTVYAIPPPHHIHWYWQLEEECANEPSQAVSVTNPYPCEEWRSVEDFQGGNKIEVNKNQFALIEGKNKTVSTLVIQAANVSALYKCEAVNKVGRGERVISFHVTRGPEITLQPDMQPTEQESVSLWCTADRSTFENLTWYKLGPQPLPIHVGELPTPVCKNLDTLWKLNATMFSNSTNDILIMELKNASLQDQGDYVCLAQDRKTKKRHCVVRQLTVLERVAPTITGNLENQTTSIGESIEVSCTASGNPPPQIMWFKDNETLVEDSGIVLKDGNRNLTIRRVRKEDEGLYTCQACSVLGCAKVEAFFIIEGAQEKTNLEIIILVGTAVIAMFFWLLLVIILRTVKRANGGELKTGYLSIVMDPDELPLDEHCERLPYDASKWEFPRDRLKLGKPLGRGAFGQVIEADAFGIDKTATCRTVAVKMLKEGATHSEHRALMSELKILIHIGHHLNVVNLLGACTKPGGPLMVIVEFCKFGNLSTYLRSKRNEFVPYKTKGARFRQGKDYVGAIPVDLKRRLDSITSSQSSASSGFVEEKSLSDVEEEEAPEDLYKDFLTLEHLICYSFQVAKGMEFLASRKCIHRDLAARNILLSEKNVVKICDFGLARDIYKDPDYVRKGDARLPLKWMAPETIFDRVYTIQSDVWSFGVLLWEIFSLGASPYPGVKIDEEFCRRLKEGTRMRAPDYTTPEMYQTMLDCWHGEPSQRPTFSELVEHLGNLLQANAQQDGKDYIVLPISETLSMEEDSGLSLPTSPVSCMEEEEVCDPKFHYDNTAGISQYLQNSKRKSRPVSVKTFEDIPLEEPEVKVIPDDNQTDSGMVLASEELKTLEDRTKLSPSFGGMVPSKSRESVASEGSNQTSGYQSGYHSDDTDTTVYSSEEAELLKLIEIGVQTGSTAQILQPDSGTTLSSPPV

With `Cc1cc(=O)n(-c2cc(Cl)ccc2F)nc1C(=O)Nc1ccc(Oc2ccnc(NC(=O)N3CC(O)C3)c2)c(F)c1` the inhibition at 10 min, 10 µM [1] was 34.2%, the Activity [2] was 8.51% and the inhibition [3] was “inactive”. It also gave an Activity [4] of 0.068%, an IC50 [5] of 7.8 µM and a remaining at 1 h, 1 µM [6] of 66.3%. It also gave an Activity [7] of 88%, an inhibition at 10 min, 10 µM [8] of 25.6% and an Activity [9] of 88%. The IC50 [10] was > 30 µM, the Activity [11] was 88% and the Activity [12] was 13.4%. For the same compound, the IC50 [13] was > 30 µM, the Activity [14] was 88% and the IC50 [15] was > 10 µM. For the same compound, the Papp at 4 h [16] was 0.86 ×10⁻⁶ cm/s, the IC50 [17] was 4.9 µM and the IC50 [18] was 0.39 µM. The half-life [19] was 6.57 h, the Tmax [20] was 0.25 h and the IC50 [21] was > 30 µM. The Activity [22] was 88%, the IC50 at 3 days [23] was > 30 µM and the MRT last [24] was 7.17 h. For the same compound, the IC50 [25] was 0.131 µM.
